Source: US20090042978A1, “Pharmaceutical Compositions Containing Nitrovinylfuran Derivatives for the Treatment of Leishmaniosis and Trypanosomosis” (CENTRO DE BIOACTIVOS QUIMICOS, priority 2005, published 2009)
Values after ≈ are worked out from the molar mass of the structure shown. Values joined by “and” are separate entries in the source; they are usually repeats but may differ in a detail not shown here. Identical values can stand only once. Like-named read-outs stand apart in the source and are kept apart here.

Tests used:
[1] = Toxicological studies (LD50, LD0, MTD), intraperitoneal; assay type: in vivo, female Balb/c mice; conditions: for LD0: maximal non-lethal dose calculated from dose-mortality curves, single i.p. injection; for LD50: single intraperitoneal injection, female Balb/c mice; for MTD at 14 days: female, Balb/c
Procedure: The same animal model used for in vivo anti-leishmanial tests was used to perform comparative toxicological studies of the β-nitrovinylfuran derivatives. The main excipient of the compositions used with this purpose was the sunflower oil. The mean lethal doses (LD50) of each β-nitrovinylfuran derivative and Amphotericin B were estimated in female Balb/c mice (18-20g body weight), treated by a single intraperitoneal injection. The maximal non-lethal doses (LD0) were calculated from the dose-mortality curves. The maximal tolerated doses (MTD, maximal dose causing neither mortality nor body weight losses over 10% respect to the initial weight) by repeated intraperitoneal administration every 12 or 24 h during 14 days were determined as well.

Leishmania promastigotes = test: In vitro activity against Leishmania promastigotes (three species); assay type: cell-based
Procedure: (§1) Mean inhibitory concentrations (Cl50%) against L. mexicana amazonensis, L. donovani infantum and L. braziliensis braziliensis promastigotes were determined according to the method described by Bodley A L et al (J Infect Dis 1995; 172(4):1157-9.). Minimal parasiticidal concentrations (CP100, minimal concentrations capable of abolishing the motility of all parasites in the culture) were also determined. Amphotericin B and Glucantime® were tested as reference drugs.

L. m. amazonensis [2] = test: Experimental cutaneous leishmaniosis, chronic lesions treated every 12 h; assay type: in vivo, Balb/c mice; conditions: for effectiveness on chronic lesions: first week, F 50 mg/Kg twice a day, Amphotericin B 5 mg/Kg every other day; for lesion size: by the end of treatment (14 days)
Procedure: Mice developed chronic leishmanial lesions at eighteen weeks post-infection. Lesions were ulcerated and covered with a thick crust. The average dorso-plantar diameter of the infected foot was 1.23±0.24 cm and the lateral diameter was 1.24±0.19 cm. At that stage the treatment started twice a day with either 2-bromo-5-(2-bromo-2-nitrovinyl)-furan at 2 mg/Kg; 2-bromo-5-(2-methyl-2-nitrovinyl)-furan at 50 mg/Kg or Amphotericin B at 5 mg/Kg every other day. A control group formed by infected non-treated mice was also included in the experiment. All drugs were administered by intraperitoneal route for 14 days. […] Amphotericin B was not effective, since neither the dorso-plantar nor the lateral diameters differed statistically from the lesions of the control group (P>0.05).

[3] = test system: L. braziliensis braziliensis promastigotes; test: In vitro activity against Leishmania promastigotes (braziliensis); assay type: cell-based; parameters: CP100: unit not given here; conditions: for CP100: minimal parasiticidal concentration; for IC50: Leishmania braziliensis, mean inhibitory concentration, read-out: CI50 (the source's name)
Procedure: as §1

[4] = test system: L. donovani infantum promastigotes; test: In vitro activity against Leishmania promastigotes (infantum); assay type: cell-based; parameters: CP100: unit not given here; conditions: for CP100: minimal parasiticidal concentration; for IC50: Leishmania donovani, mean inhibitory concentration, read-out: CI50 (the source's name)
Procedure: as §1

[5] = test system: L. mexicana amazonensis promastigotes; test: In vitro activity against Leishmania promastigotes (amazonensis); assay type: cell-based; parameters: CP100: unit not given here; conditions: for CP100: minimal parasiticidal concentration abolishing motility of all parasites; for IC50: Leishmania mexicana, mean inhibitory concentration, read-out: CI50 (the source's name)
Procedure: as §1

L. m. amazonensis [6] = test: Experimental cutaneous leishmaniosis, early stage lesions treated every 24 h; assay type: in vivo, Balb/c mice; conditions: for lesion evolution versus controls: during and after 14 days treatment, Amphotericin B 1 mg/Kg; for lesion evolution versus controls / lesion growth: D 5 mg/Kg; for lesion growth: i.p. daily, F 50 mg/Kg
Procedure: (§2) Balb/c mice were experimentally infected with L. m. amazonensis promastigotes by intradermal injection in the footpads and six weeks later they were treated with the test compounds by intraperitoneal route. The product 2-bromo-5-(2-bromo-2-nitrovinyl)-furan was administered at a dose of 5 mg/Kg; the 2-bromo-5-(2-methyl-2-nitrovinyl)-furan, at 50 mg/Kg and Amphotericin B, at 1 mg/Kg. Animals were daily dosed for 14 days. Miglyol 810, the vehicle used for the β-nitrovinylfuran derivatives, was similarly administered to a group of mice.

[7] = test system: trypomastigotes of T. cruzi; test: In vitro activity against Trypanosoma cruzi; assay type: cell-based; conditions: for IC50: Trypanosoma cruzi, T. cruzi trypomastigotes grown in rat myoblast cell line, read-out: CI50 (the source's name); for CP100: minimal concentration that immobilizes all parasites
Procedure: The in vitro activity of the β-nitrovinylfuran derivatives was tested against trypomastigotes of T. cruzi grown in a rat myoblast cell line. Minimal parasiticidal concentrations (minimal concentration that immobilizes all the parasites in the culture) and mean inhibitory concentrations (concentration that reduces the number of parasites to 50% of those found in the un-treated control cultures) were determined according to Buckner's method (Antimicrob Agents Chemother 1996; 40(11):2592-7).

L. m. amazonensis [8] = test: Experimental cutaneous leishmaniosis, early stage lesions treated every 12 h; assay type: in vivo, Balb/c mice; conditions: for activity compared with Amphotericin B / lesion growth rate: i.p. every 12 h; for lesion growth rate: D 2 mg/Kg, F 100 mg/Kg
Procedure: as §2
The experiment was essentially carried out in a similar way as the one described above. However, 2-bromo-5-(2-bromo-2-nitrovinyl,-furan was administered at a dose of 2 mg/Kg and 2-bromo-5-(2-methyl-2-nitrovinyl)-furan at 100 mg/Kg. Treatments were administered by intraperitoneal route, but every 12 h instead of 24 h.

cutaneous leishmaniosis = test: Treatment of human cutaneous leishmaniosis, topical ointment; assay type: in vivo; conditions: oily ointment 0.15%, topical once a day, 21 days
Procedure: One hundred patients with parasitological diagnose of cutaneous leishmaniosis were treated. Patients were topically treated, once a day, for 21 days with an oily ointment containing 0.15% 2-bromo-5-(2-bromo-2-nitrovinyl)-furan as active ingredient and petrolatum as the main excipient.

[9] = mouse, in vivo, ip, repeated intraperitoneal administration every 24 h during 14 days, read-out: MTD (every 24 h)
[10] = mouse, in vivo, ip, read-out: LD50

Compound	LD0 [1] [mg/kg]	CP100 [3]	CP100 [4]	CP100 [5]	MTD at 14 days [1, 9] [mg/kg]	LD50 [1, 10] [mg/kg]	IC50 [7]	CP100 [7]	IC50 [3] [µg/mL]	IC50 [4] [µg/mL]	IC50 [5] [µg/mL]	also measured
C[C@@H]1[C@H](O)[C@@H](C)/C=C/C=C/C=C/C=C/C=C/C=C/C=C/[C@H](O[C@@H]2O[C@H](C)[C@@H](O)[C@H](N)[C@@H]2O)C[C@@H]2O[C@](O)(C[C@@H](O)C[C@@H](O)[C@H](O)CC[C@@H](O)C[C@@H](O)CC(=O)O[C@H]1C)C[C@H](O)[C@H]2C(=O)O [Amphotericin B, reference compound]	15	0.028	0.016	0.051								LD50 [1]: 22 mg/kg; activity relative to the β-nitrovinylfuran derivatives (Leishmania promastigotes): more active than the β-nitrovinylfuran derivatives; dorso-plantar diameter versus control (L. m. amazonensis [2]; by the end of treatment): incremented their lesion dorso-plantar diameters as controls; lateral diameter versus control (L. m. amazonensis [2]; by the end of treatment): the change was not different; effectiveness on chronic lesions (L. m. amazonensis [2]): not effective; lesion evolution versus controls (L. m. amazonensis [6]): evolved similarly to controls; lesion growth rate after discontinuation (L. m. amazonensis [6]; first week after discontinuation of treatment, 1 mg/Kg): remarkable decrease of lesion growth rate
O=[N+]([O-])C=Cc1ccc(Br)o1 [B, 2-bromo-5-(2-nitrovinyl)-furan]	45	0.61	0.51	2.08	20	73	1.2 µg/mL and 5.7 µM	3.3 μg/mL and 15.3 μM	0.18 (≈ 0.826 µM)	0.23 (≈ 1.06 µM)	0.45 (≈ 2.06 µM)	
CC(=Cc1ccco1)[N+](=O)[O-] [E, 2-(2-methyl-2-nitrovinyl)-furan]	65	4.84	1.27	3.49	60	80	4.7 µg/mL and 31 µM	30.0 μg/mL and 196.1 μM	0.35 (≈ 2.29 µM)	0.31 (≈ 2.02 µM)	0.34 (≈ 2.22 µM)	
CC(=Cc1ccc(Br)o1)[N+](=O)[O-] [F, 2-bromo-5-(2-methyl-2-nitrovinyl)-furan]	200	1.32	0.62	1.42	100	246	5.3 µg/mL and 23 µM	30.0 μg/mL and 129.3 μM	0.24 (≈ 1.03 µM)	0.2 (≈ 0.862 µM)	0.2 (≈ 0.862 µM)	activity compared with Amphotericin B (L. m. amazonensis [8]): higher activity than Amphotericin B; lesion growth rate (L. m. amazonensis [8]): significantly lower compared to controls; lesion size (L. m. amazonensis [2]): ineffective; effectiveness on chronic lesions (L. m. amazonensis [2]): did not prove to be effective; lesion size change (L. m. amazonensis [6]; first week of treatment, 50 mg/Kg i.p. daily): small decrease in lesion size; lesion growth (L. m. amazonensis [6]; first week of treatment): minimal lesion growth
O=C(Cn1ccnc1[N+](=O)[O-])NCc1ccccc1 [Benznidazole, reference compound]							0.9 µg/mL and 3.3 µM	>40 μg/mL and >154 μM				
meglumine antimoniate [Glucantime ®, reference compound]		>4250	>4250	>4250								activity relative to the β-nitrovinylfuran derivatives (Leishmania promastigotes): significantly less active
O=[N+]([O-])C=Cc1ccco1 [A, 2-(2-nitrovinyl)-furan]	50	1.29	1.75	1.12	55	68	1.8 µg/mL and 12.6 µM	10.0 μg/mL and 71.9 μM	0.2 (≈ 1.44 µM)	0.35 (≈ 2.52 µM)	0.66 (≈ 4.74 µM)	
O=[N+]([O-])C(Br)=Cc1ccco1 [Compound C, 2-(2-bromo-2-nitrovinyl)-furan]	35	1.25	2.01	1.77		51	3.7 µg/mL and 16.9 µM	10.0 μg/mL and 45.9 μM	0.25 (≈ 1.15 µM)	0.36 (≈ 1.65 µM)	0.63 (≈ 2.89 µM)	
O=[N+]([O-])C(Br)=Cc1ccc(Br)o1 [D, 2-bromo-5-(2-bromo-2-nitrovinyl)-furan]	15	0.49	0.86	1.53	5	24	4.1 µg/mL and 13.9 µM	10.0 μg/mL and 33.7 μM	0.26 (≈ 0.876 µM)	0.35 (≈ 1.18 µM)	0.25 (≈ 0.842 µM)	MTD at 14 days ([1]; mouse, in vivo, ip, repeated intraperitoneal administration every 12 h during 14 days, read-out: MTD (every 12 h)): 2 to 3 mg/kg; lesion size (L. m. amazonensis [8]; first week of treatment, 2 mg/Kg i.p. every 12 h, P<0.001 vs control): decreased during the first week of treatment; activity compared with Amphotericin B (L. m. amazonensis [8]): higher activity than Amphotericin B; lesion growth rate (L. m. amazonensis [8]): significantly lower compared to controls; lesion size (L. m. amazonensis [8]; seven days after finishing treatment, P<0.05): smaller than those of controls; dorso-plantar diameter versus control (L. m. amazonensis [2]; by the end of treatment): significantly different; lesion size (L. m. amazonensis [2]): decrease of lesion size; dorso-plantar diameter of the infected foot (L. m. amazonensis [2]; first week of treatment, P<0.05 vs control): decrease of the dorso-plantar diameter; lateral diameter of the lesions (L. m. amazonensis [2]; first week of treatment, P>0.05): comparable to the diameter of control mice; side effects (cutaneous leishmaniosis): did not evidence any side effect that impeded the continuation of therapy; patients with total cure of the cutaneous lesions (cutaneous leishmaniosis; one hundred patients): 90%; lesion evolution versus controls (L. m. amazonensis [6]): remained for two other weeks after treatment had finished; lesion growth (L. m. amazonensis [6]; first week of treatment): minimal lesion growth
